Measured values published in ChEMBL document CHEMBL1909046, “DrugMatrix in vitro pharmacology data”.

Legend:
[1] = biological target: T1, Cholecystokinin receptor type A (Homo sapiens, UniProt P32238); assay type: cell membranes, Membrane; conditions: 1321-n1; note: in other assays of this panel Not Active means under 50% inhibition at 10 µM
T1 sequence (P32238 whole entry): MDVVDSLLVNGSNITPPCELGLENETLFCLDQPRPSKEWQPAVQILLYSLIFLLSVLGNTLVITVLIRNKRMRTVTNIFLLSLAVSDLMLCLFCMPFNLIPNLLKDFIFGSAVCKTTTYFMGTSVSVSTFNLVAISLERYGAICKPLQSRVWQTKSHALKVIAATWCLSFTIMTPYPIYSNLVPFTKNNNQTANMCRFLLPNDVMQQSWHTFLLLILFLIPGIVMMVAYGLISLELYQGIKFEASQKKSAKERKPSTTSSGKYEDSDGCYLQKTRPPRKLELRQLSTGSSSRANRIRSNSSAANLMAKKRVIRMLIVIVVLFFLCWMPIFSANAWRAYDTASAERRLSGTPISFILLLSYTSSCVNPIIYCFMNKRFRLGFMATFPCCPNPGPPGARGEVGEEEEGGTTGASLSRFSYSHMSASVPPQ

[2] = biological target: T2, Cytochrome P450 1A2 (Homo sapiens, UniProt P05177); conditions: bti-tn-5b1-4; note: in other assays of this panel Not Active means under 50% inhibition at 10 µM
T2 sequence (P05177 whole entry): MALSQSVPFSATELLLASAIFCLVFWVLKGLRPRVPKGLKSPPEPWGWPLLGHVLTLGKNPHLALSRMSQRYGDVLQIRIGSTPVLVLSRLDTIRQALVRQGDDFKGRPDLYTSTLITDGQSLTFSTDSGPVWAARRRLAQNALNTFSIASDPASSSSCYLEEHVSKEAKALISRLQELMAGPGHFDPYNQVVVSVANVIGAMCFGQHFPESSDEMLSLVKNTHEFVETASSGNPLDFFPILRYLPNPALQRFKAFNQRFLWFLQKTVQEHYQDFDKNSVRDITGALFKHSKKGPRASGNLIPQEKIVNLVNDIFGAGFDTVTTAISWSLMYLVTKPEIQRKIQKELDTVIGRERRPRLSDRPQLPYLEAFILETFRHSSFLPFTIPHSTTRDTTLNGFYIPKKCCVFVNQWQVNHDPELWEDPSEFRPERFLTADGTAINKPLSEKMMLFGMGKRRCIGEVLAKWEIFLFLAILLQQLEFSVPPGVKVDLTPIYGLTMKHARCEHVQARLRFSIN

[3] = biological target: Adenosine receptor A2a (Homo sapiens, UniProt P29274); assay: DRUGMATRIX: Adenosine A2A radioligand binding (ligand: […]); assay type: cell membranes, HEK293, Membrane; conditions: hek293; Not Active = under 50% inhibition at 10 µM
[4] = biological target: Cannabinoid receptor 1 (Homo sapiens, UniProt P21554); assay type: cell membranes, Chem-1, Membrane; conditions: chem-1; note: in other assays of this panel Not Active means under 50% inhibition at 10 µM
[5] = biological target: T3, Neutrophil elastase (Homo sapiens, UniProt P08246); assay type: tissue-based;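 note: inhibition of neutrophil elastase enzyme activity, measured with a p-nitroanilide-linked peptide substrate; in other assays of this panel Not Active means under 50% inhibition at 10 µM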
T3 sequence (P08246 whole entry): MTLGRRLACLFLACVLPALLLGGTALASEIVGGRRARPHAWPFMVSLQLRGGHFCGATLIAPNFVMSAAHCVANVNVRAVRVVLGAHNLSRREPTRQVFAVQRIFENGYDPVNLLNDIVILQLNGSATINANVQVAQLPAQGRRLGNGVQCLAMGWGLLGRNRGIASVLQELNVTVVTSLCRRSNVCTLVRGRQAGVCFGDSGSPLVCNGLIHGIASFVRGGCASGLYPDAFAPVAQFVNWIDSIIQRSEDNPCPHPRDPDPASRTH

[6] = biological target: T4, Neuropeptide Y receptor type 2 (Homo sapiens, UniProt P49146); assay type: cell membranes, Membrane; conditions: kan-ts; note: in other assays of this panel Not Active means under 50% inhibition at 10 µM
T4 sequence (P49146 whole entry): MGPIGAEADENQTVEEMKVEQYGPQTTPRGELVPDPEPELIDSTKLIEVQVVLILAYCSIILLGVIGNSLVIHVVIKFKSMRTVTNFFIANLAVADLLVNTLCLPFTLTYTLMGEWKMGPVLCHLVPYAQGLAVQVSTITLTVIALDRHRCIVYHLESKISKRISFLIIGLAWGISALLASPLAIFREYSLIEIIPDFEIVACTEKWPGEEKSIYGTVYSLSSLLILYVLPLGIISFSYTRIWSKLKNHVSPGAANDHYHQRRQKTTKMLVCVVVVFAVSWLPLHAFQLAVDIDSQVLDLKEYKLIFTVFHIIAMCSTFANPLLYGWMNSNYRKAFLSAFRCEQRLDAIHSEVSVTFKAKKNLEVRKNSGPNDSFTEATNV

[7] = biological target: T5, 5-hydroxytryptamine receptor 1A (Rattus norvegicus, UniProt P19327); assay type: cell membranes, CHO-K1, Membrane; conditions: cho-k1; note: in other assays of this panel Not Active means under 50% inhibition at 10 µM
T5 sequence (P19327 whole entry): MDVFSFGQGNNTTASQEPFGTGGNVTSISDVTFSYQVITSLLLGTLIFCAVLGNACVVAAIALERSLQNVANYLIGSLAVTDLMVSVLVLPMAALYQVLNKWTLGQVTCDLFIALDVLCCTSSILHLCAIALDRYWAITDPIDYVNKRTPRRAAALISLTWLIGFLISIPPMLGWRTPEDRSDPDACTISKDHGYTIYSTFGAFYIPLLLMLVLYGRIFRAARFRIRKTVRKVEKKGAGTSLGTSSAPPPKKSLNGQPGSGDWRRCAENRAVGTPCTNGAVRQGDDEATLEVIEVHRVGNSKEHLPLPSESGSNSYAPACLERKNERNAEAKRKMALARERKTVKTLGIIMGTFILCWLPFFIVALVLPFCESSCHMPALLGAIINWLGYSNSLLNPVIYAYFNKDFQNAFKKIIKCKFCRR

Cannabinoid receptor 1, sequence (P21554 whole entry): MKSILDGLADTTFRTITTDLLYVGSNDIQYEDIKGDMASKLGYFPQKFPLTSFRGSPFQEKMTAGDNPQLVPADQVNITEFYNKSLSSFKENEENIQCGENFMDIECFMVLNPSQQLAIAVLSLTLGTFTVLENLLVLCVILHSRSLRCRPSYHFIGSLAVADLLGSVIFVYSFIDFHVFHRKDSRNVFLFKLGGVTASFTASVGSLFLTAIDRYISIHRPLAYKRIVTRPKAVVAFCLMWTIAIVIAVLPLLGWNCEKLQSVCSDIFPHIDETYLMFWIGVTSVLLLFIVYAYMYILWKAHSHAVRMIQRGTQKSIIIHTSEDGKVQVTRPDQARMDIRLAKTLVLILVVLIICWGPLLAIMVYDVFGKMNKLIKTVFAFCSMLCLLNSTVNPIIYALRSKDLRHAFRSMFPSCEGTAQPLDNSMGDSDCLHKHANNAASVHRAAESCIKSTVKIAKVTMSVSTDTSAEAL
Adenosine receptor A2a, sequence (P29274 whole entry): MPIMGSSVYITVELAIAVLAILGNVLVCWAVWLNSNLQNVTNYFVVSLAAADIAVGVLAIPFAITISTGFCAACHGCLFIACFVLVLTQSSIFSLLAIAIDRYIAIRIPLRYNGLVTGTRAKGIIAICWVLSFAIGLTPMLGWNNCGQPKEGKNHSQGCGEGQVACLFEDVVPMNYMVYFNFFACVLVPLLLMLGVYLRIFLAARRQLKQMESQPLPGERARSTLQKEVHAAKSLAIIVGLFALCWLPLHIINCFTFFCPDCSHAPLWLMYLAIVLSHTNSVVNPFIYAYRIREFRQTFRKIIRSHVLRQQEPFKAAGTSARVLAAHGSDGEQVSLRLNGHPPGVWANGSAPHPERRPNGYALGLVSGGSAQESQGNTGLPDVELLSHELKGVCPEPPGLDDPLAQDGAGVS

O=C(O)c1ccccc1O [SALICYLIC ACID]
Not Active: IC50 [1] | IC50 [2] | Ki [2] | IC50 [3] | IC50 [4] | IC50 [5] | IC50 [6] | IC50 [7]

CC1CCC(NC(=O)N(CCCl)N=O)CC1 (stereo not given) [SEMUSTINE]
Not Active: IC50 [1] | IC50 [2] | Ki [2] | IC50 [3] | IC50 [4] | IC50 [5] | IC50 [6] | IC50 [7]

O=C1C[C@@H]2OCC=C3CN4CC[C@]56c7ccccc7N1[C@H]5[C@H]2[C@H]3C[C@H]46 [STRYCHNINE]
Not Active: IC50 [1] | IC50 [2] | Ki [2] | IC50 [3] | IC50 [4] | IC50 [5] | IC50 [6] | IC50 [7]

C[N+](C)(C)CCOC(=O)CCC(=O)OCC[N+](C)(C)C.[Cl-].[Cl-] [SUCCINYLCHOLINE CHLORIDE]
Not Active: IC50 [1] | IC50 [2] | Ki [2] | IC50 [3] | IC50 [4] | IC50 [5] | IC50 [6] | IC50 [7]

Nc1ccc(S(=O)(=O)NC(=O)c2ccccc2)cc1 [SULFABENZAMIDE]
Not Active: IC50 [1] | IC50 [2] | Ki [2] | IC50 [3] | IC50 [4] | IC50 [5] | IC50 [6] | IC50 [7]

O=c1[nH]c(=O)n(C2CCCO2)cc1F (stereo not given) [TEGAFUR]
Not Active: IC50 [1] | IC50 [2] | Ki [2] | IC50 [3] | IC50 [4] | IC50 [5] | IC50 [6] | IC50 [7]

CC(=N)S [THIOACETAMIDE]
Not Active: IC50 [1] | IC50 [2] | Ki [2] | IC50 [3] | IC50 [4] | IC50 [5] | IC50 [6] | IC50 [7]

Cc1ccc(C(=O)c2ccc(CC(=O)O)n2C)cc1 [TOLMETIN]
Not Active: IC50 [1] | IC50 [2] | Ki [2] | IC50 [3] | IC50 [4] | IC50 [5] | IC50 [6] | IC50 [7]

CC(=O)OCC(COC(C)=O)OC(C)=O [TRIACETIN]
Not Active: IC50 [1] | IC50 [2] | Ki [2] | IC50 [3] | IC50 [4] | IC50 [5] | IC50 [6] | IC50 [7]

TRANSPLATIN
Not Active: IC50 [1] | Ki [1] | IC50 [2] | Ki [2] | IC50 [3] | Ki [3] | IC50 [4] | Ki [4] | IC50 [5] | Ki [5] | IC50 [6] | Ki [6] | IC50 [7] | Ki [7]

ZIRCONIUM(IV) CHLORIDE
Not Active: IC50 [1] | Ki [1] | IC50 [2] | Ki [2] | IC50 [3] | Ki [3] | IC50 [4] | Ki [4] | IC50 [5] | Ki [5] | IC50 [6] | Ki [6] | IC50 [7] | Ki [7]
